Results reported in US20150175599A1, “FAAH Inhibitors” (Ironwood Pharmaceuticals, Inc., priority 2010, published 2015).

target: T1, FAAH (Rattus norvegicus, UniProt P97612); assay: FAAH inhibition, rat brain membrane homogenate assay; assay type: biochemical; conditions: not given
T1 construct: For the assay of FAAH activity in rat brain membrane (RBM) homogenates; tissue Charles River (animals); host or cells: rat whole brain, membrane fraction
T1 sequence (P97612 1-579): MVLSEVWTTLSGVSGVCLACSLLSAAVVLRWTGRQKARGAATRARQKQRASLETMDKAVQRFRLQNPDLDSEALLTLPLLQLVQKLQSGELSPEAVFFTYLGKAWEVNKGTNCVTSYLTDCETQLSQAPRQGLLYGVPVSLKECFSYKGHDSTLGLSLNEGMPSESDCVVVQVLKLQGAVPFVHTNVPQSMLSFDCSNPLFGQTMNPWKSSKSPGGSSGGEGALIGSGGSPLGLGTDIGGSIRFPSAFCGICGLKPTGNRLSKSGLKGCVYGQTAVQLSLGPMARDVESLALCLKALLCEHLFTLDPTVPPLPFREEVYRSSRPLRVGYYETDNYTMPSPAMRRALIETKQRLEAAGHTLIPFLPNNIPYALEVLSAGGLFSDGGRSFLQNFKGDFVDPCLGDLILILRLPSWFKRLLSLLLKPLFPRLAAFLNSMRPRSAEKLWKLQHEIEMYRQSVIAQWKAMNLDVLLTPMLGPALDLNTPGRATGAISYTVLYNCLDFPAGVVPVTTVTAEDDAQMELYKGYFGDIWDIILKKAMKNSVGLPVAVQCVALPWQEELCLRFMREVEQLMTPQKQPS
Summary of the method: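 Membranes from female CD rat brain (Tris pH 7.4/EDTA/MgCl2 resuspension), 7 μg protein, incubated 10 min at 37 °C with [3H]anandamide plus […] unlabelled AEA, 1 mg/mL fatty acid-free BSA, Tris-HCl pH 6.5, 1 mM EDTA, 1% DMSO. [3H]ethanolamine separated by chloroform/methanol extraction or charcoal filtration, scintillation-counted; IC50 derived.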

SMILES	IC50 [µM]
COc1cc(NC(=O)C(=O)c2c(C)n(Cc3ncc(F)cc3F)c3ccc(C)cc23)ccn1 [Compound 88, 2-(1-((3,5-difluoropyridin-2-yl)methyl)-2,5-dimethyl-1H-indol-3-yl)-N-(2-methoxypyridin-4-yl)-2-oxoacetamide]	< 0.1

same assay, conditions: rat brain homogenate; average activity; read-out: Rat Brain Extract FAAH IC50

SMILES	IC50 [µM]
COc1cc(NC(=O)C(=O)c2c(C)n(Cc3ccc(Cl)cn3)c3ccc(Cl)cc23)ccn1 [Compound 63, 2-(5-chloro-1-((5-chloropyridin-2-yl)methyl)-2-methyl-1H-indol-3-yl)-N-(2-methoxypyridin-4-yl)-2-oxoacetamide]	< 0.1
COc1cc(NC(=O)C(=O)c2c(C)n(Cc3ncc(Cl)cc3F)c3cc(F)c(OC)cc23)ccn1 [Compound 99, 2-(1-((5-chloro-3-fluoropyridin-2-yl)methyl)-6-fluoro-5-methoxy-2-methyl-1H-indol-3-yl)-N-(2-methoxypyridin-4-yl)-2-oxoacetamide]	< 0.1
COc1ccc(Cn2c(C)c(C(=O)C(=O)Nc3ccnc(OC)c3)c3cc(OC)c(Cl)cc32)nc1 [Compound 98, 2-(6-chloro-5-methoxy-1-((5-methoxypyridin-2-yl)methyl)-2-methyl-1H-indol-3-yl)-N-(2-methoxypyridin-4-yl)-2-oxoacetamide]	< 0.1
COc1cnc2c(c1)c(C(=O)C(=O)Nc1ccnc(OC)c1)c(C)n2Cc1ncc(Cl)cc1F [Compound 34, 2-(1-((5-chloro-3-fluoropyridin-2-yl)methyl)-5-methoxy-2-methyl-1H-pyrrolo[2,3-b]pyridin-3-yl)-N-(2-methoxypyridin-4-yl)-2-oxoacetamide]	< 0.1
COc1cc(NC(=O)C(=O)c2c(C)n(Cc3ccc(Cl)cc3)c3ccc(OC)c(Cl)c23)ccn1 [Compound 58, 2-(4-chloro-1-(4-chlorobenzyl)-5-methoxy-2-methyl-1H-indol-3-yl)-N-(2-methoxypyridin-4-yl)-2-oxoacetamide]	0.1 to 1
COc1cc(NC(=O)C(=O)c2c(C)n(Cc3ccc(Cl)cc3)c3ccc(N(C)C(=O)OC(C)(C)C)cc23)ccn1 [Compound 7, Tert-butyl(1-(4-chlorobenzyl)-3-(2-((2-methoxypyridin-4-yl)amino)-2-oxoacetyl)-2-methyl-1H-indol-5-yl)(methyl)carbamate]	0.1 to 1
CCN(CC)c1ccc2c(c1)c(C(=O)C(=O)Nc1ccnc(OC)c1)c(C)n2Cc1ccc(Cl)cc1 [Compound 24, 2-(1-(4-chlorobenzyl)-5-(diethylamino)-2-methyl-1H-indol-3-yl)-N-(2-methoxypyridin-4-yl)-2-oxoacetamide]	0.1 to 1
COc1cc(NC(=O)C(=O)c2c(C)n(Cc3ccc(Cl)cn3)c3ccc(N(C)C)cc23)ccn1 [Compound 66, 2-(1-((5-chloropyridin-2-yl)methyl)-5-(dimethylamino)-2-methyl-1H-indol-3-yl)-N-(2-methoxypyridin-4-yl)-2-oxoacetamide]	< 0.1
COc1cc(NC(=O)C(=O)c2c(C)n(Cc3ccc(Cl)cc3)c3ccc(COC(C)=O)cc23)ccn1 [Compound 10, (1-(4-chlorobenzyl)-3-(2-(2-methoxypyridin-4-ylamino)-2-oxoacetyl)-2-methyl-1H-indol-5-yl)methyl acetate]	< 0.1
COc1cc(NC(=O)C(=O)c2c(C)n(Cc3ccc(Cl)cc3)c3c(OC)cccc23)ccn1 [Compound 51, 2-(1-(4-chlorobenzyl)-7-methoxy-2-methyl-1H-indol-3-yl)-N-(2-methoxypyridin-4-yl)-2-oxoacetamide]	1 to 10
Cc1c(C(=O)C(=O)Nc2cccc(Cl)c2)c2cc(O)ccc2n1Cc1ccc(Cl)cc1 [Compound 71, 2-(1-(4-chlorobenzyl)-5-hydroxy-2-methyl-1H-indol-3-yl)-N-(3-chlorophenyl)-2-oxoacetamide]	0.1 to 1
COc1ccc2c(c1)c(C(=O)C(=O)Nc1ccnc(OC)c1)c(C)n2Cc1cnc(Cl)cn1 [Compound 12, 2-(1-((5-chloropyrazin-2-yl)methyl)-5-methoxy-2-methyl-1H-indol-3-yl)-N-(2-methoxypyridin-4-yl)-2-oxoacetamide]	< 0.1
COc1cc(NC(=O)C(=O)c2c(C)n(Cc3ccc(Cl)cc3)c3ccc([N+](=O)[O-])cc23)ccn1 [Compound 19, 2-(1-(4-chlorobenzyl)-2-methyl-5-nitro-1H-indol-3-yl)-N-(2-methoxypyridin-4-yl)-2-oxoacetamide]	< 0.1
